Values quoted from earlier work in US5516904A, “Acetylenes disubstituted with a heteroaromatic group and a substituted phenyl group having retinoid like activity” (Allergan, Inc., priority 1995, dated 1996).

Tested on: ornithine decarboxylase (ODC)
Conditions: result in words; literature background

In the case of `CC1=C(/C=C/C(C)=C/C=C/C(C)=C/C(=O)O)C(C)(C)CCC1` [Retionic acid, retinoic acid], the “inhibition of induction of ODC activity by TPA” value is listed as “inhibits”.
